In ChEMBL document CHEMBL6177983, “PSMA-Guided PROTAC Degraders for Tumor-Specific Protein Degradation in Prostate Cancer” (J Med Chem, 2025):
Calls of active or inactive are those of the source. The calls are words filed in the database; no cut-off is given here.

What was measured:
[1] = target: T1, von Hippel-Lindau disease tumor suppressor/Androgen receptor (Homo sapiens, UniProt P10275+P40337); assay: PROTAC activity at AR/VHL in human VCaP cells assessed as induction of androgen receptor degradation measured for 12 hrs by Western blot analysis; assay type: cell-based
[2] = Drug accumulation in male BALB/c mouse tumor implanted with human 22Rv1 cells at 0.3 mmol/L, iv measured at 1 to 24 hrs by LC-MS/MS analysis; assay type: ADME, organism-based, Neoplasm, CWR22R; conditions: in vivo, time 1-24 hrs
[3] = target: T1, von Hippel-Lindau disease tumor suppressor/Androgen receptor; assay: PROTAC activity at AR/VHL in human 22Rv1 cells assessed as induction of androgen receptor degradation at 1 uM measured for 6 hrs in presence of VH032 by Western blot analysis; assay type: cell-based
Target sequence in this assay (P10275 whole entry, looked up): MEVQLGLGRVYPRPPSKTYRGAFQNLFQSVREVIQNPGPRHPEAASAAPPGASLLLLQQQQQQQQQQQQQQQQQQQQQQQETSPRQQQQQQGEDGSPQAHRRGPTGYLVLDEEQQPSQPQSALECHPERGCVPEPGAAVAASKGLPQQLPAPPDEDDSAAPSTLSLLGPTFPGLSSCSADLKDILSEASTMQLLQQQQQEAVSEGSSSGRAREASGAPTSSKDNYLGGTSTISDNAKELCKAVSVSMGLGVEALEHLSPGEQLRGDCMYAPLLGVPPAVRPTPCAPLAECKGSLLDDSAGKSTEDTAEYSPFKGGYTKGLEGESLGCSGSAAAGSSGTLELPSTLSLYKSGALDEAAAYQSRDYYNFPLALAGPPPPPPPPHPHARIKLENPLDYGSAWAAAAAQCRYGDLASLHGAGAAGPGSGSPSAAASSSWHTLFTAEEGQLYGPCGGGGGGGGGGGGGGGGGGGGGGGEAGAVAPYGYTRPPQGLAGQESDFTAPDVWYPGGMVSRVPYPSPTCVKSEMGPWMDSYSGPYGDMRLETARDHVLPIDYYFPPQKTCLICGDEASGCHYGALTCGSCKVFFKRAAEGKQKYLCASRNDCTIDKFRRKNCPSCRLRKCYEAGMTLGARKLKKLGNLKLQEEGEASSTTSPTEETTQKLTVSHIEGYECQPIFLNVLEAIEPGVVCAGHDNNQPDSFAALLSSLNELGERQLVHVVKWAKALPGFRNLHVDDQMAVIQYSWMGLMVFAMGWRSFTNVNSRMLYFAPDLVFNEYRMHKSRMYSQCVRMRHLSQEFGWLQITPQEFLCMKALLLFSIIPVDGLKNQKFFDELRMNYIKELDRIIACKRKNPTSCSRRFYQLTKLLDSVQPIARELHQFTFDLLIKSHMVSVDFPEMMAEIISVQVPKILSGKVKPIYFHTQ
Target sequence in this assay (P40337 whole entry, looked up): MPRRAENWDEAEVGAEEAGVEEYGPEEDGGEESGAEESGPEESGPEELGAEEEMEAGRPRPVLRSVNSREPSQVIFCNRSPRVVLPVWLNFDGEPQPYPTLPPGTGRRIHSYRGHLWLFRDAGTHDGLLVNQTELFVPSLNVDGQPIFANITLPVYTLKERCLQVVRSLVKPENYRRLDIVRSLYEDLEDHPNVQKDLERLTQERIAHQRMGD

[4] = target: T1, von Hippel-Lindau disease tumor suppressor/Androgen receptor; assay: PROTAC activity at AR/VHL in human 22Rv1 cells assessed as induction of androgen receptor degradation measured for 12 hrs by Western blot analysis; assay type: cell-based
[5] = target: T1, von Hippel-Lindau disease tumor suppressor/Androgen receptor; assay: PROTAC activity at AR/VHL in human LNCaP cells assessed as induction of androgen receptor degradation at 1 uM measured for 6 hrs in presence of PSMA ligand by Western blot analysis; assay type: cell-based
Target sequence in this assay (P10275 whole entry, looked up): as the sequence (P10275 whole entry, looked up) above
Target sequence in this assay (P40337 whole entry, looked up): as the sequence (P40337 whole entry, looked up) above

[6] = target: T1, von Hippel-Lindau disease tumor suppressor/Androgen receptor; assay: PROTAC activity at AR/VHL in PSMA knockdown human LNCaP cells assessed as induction of androgen receptor degradation at 1 uM measured for 24 hrs by Western blot analysis; assay type: cell-based
Target sequence in this assay (P10275 whole entry, looked up): as the sequence (P10275 whole entry, looked up) above
Target sequence in this assay (P40337 whole entry, looked up): as the sequence (P40337 whole entry, looked up) above

LNCaP [7] = assay: Downregulation of TMPRSS2 expression in human LNCaP cells measured up to 5 uM incubated for 12 hrs by RT-qPCR analysis; assay type: functional, cell-based
[8] = target: T1, von Hippel-Lindau disease tumor suppressor/Androgen receptor; assay: PROTAC activity at AR/VHL in human LNCaP cells assessed as induction of androgen receptor degradation at 0.03 to 3 uM measured for 12 hrs by Western blot analysis; assay type: cell-based; conditions: dose 0.03-3 µM
Target sequence in this assay (P10275 whole entry, looked up): as the sequence (P10275 whole entry, looked up) above
Target sequence in this assay (P40337 whole entry, looked up): as the sequence (P40337 whole entry, looked up) above

[9] = target: T1, von Hippel-Lindau disease tumor suppressor/Androgen receptor; assay: PROTAC activity at AR/VHL in human LNCaP cells assessed as induction of androgen receptor degradation at 1 uM measured for 6 hrs in presence of MLN4924 by Western blot analysis; assay type: cell-based
Target sequence in this assay (P10275 whole entry, looked up): as the sequence (P10275 whole entry, looked up) above
Target sequence in this assay (P40337 whole entry, looked up): as the sequence (P40337 whole entry, looked up) above

[10] = target: T1, von Hippel-Lindau disease tumor suppressor/Androgen receptor; assay: PROTAC activity at AR/VHL in human 22Rv1 cells assessed as induction of androgen receptor degradation at 1 uM measured for 6 hrs in presence of MG132 by Western blot analysis; assay type: cell-based
Target sequence in this assay (P10275 whole entry, looked up): as the sequence (P10275 whole entry, looked up) above
Target sequence in this assay (P40337 whole entry, looked up): as the sequence (P40337 whole entry, looked up) above

[11] = target: T1, von Hippel-Lindau disease tumor suppressor/Androgen receptor; assay: In vivo PROTAC activity at AR/VHL in BALB/c mouse xenografted with human LNCaP cells assessed as reduction in AR level in tumor at 1 mmol/L, iv measured for 3 days by Western blot analysis; assay type: functional, organism-based; conditions: time 3.0 day
[12] = target: T1, von Hippel-Lindau disease tumor suppressor/Androgen receptor; assay: PROTAC activity at AR/VHL in human MDA-MB-231 cells assessed as effect on AR level measured for 12 hrs by Western blot analysis; assay type: cell-based
Target sequence in this assay (P10275 whole entry): as the sequence (P10275 whole entry, looked up) above
Target sequence in this assay (P40337 whole entry): as the sequence (P40337 whole entry, looked up) above

[13] = target: T1, von Hippel-Lindau disease tumor suppressor/Androgen receptor; assay: PROTAC activity at AR/VHL in human HEK293T cells assessed as effect on AR level measured for 12 hrs by Western blot analysis; assay type: cell-based
Target sequence in this assay (P10275 whole entry): as the sequence (P10275 whole entry, looked up) above
Target sequence in this assay (P40337 whole entry): as the sequence (P40337 whole entry, looked up) above

[14] = target: T1, von Hippel-Lindau disease tumor suppressor/Androgen receptor; assay: PROTAC activity at AR/VHL in human MCF7 cells assessed as effect on AR level measured for 12 hrs by Western blot analysis; assay type: cell-based
Target sequence in this assay (P10275 whole entry): as the sequence (P10275 whole entry, looked up) above
Target sequence in this assay (P40337 whole entry): as the sequence (P40337 whole entry, looked up) above

[15] = Stability of the compound in PBS buffer measured up to 24 hrs by HPLC analysis; assay type: physicochemical; conditions: read-out: Stability
[16] = target: T1, von Hippel-Lindau disease tumor suppressor/Androgen receptor; assay: PROTAC activity at AR/VHL in human MDA-MB-231 cells assessed as effect on AR level at 0.03 to 10 uM measured for 12 hrs by Western blot analysis; assay type: cell-based; conditions: dose 0.03-10 µM
[17] = target: T1, von Hippel-Lindau disease tumor suppressor/Androgen receptor; assay: PROTAC activity at AR/VHL in human 22Rv1 cells assessed as induction of androgen receptor degradation at 1 uM measured for 6 hrs in presence of MLN4924 by Western blot analysis; assay type: cell-based
[18] = target: T1, von Hippel-Lindau disease tumor suppressor/Androgen receptor; assay: PROTAC activity at AR/VHL in human 22Rv1 cells assessed as induction of androgen receptor degradation at 0.03 to 3 uM measured for 12 hrs by Western blot analysis; assay type: cell-based; conditions: dose 0.03-3 µM
[19] = target: T1, von Hippel-Lindau disease tumor suppressor/Androgen receptor; assay: PROTAC activity at AR/VHL in human LNCaP cells assessed as induction of androgen receptor degradation measured for 12 hrs by Western blot analysis; assay type: cell-based
[20] = target: T1, von Hippel-Lindau disease tumor suppressor/Androgen receptor; assay: PROTAC activity at AR/VHL in human 22Rv1 cells assessed as induction of androgen receptor degradation at 1 uM measured for 6 hrs in presence of PSMA ligand by Western blot analysis; assay type: cell-based
LNCaP [21] = assay: Downregulation of FKB51 expression in human LNCaP cells measured up to 5 uM incubated for 12 hrs by RT-qPCR analysis; assay type: functional, cell-based
[22] = target: T1, von Hippel-Lindau disease tumor suppressor/Androgen receptor; assay: PROTAC activity at AR/VHL in human LNCaP cells assessed as induction of androgen receptor degradation at 1 uM measured for 6 hrs in presence of MG132 by Western blot analysis; assay type: cell-based
[23] = target: T1, von Hippel-Lindau disease tumor suppressor/Androgen receptor; assay: PROTAC activity at AR/VHL in human MCF7 cells assessed as effect on AR level at 0.03 to 10 uM measured for 12 hrs by Western blot analysis; assay type: cell-based; conditions: dose 0.03-10 µM
[24] = target: T1, von Hippel-Lindau disease tumor suppressor/Androgen receptor; assay: PROTAC activity at AR/VHL in human HEK293T cells assessed as effect on AR level at 0.03 to 10 uM measured for 12 hrs by Western blot analysis; assay type: cell-based; conditions: dose 0.03-10 µM
LNCaP [25] = assay: Downregulation of PSA expression in human LNCaP cells measured up to 5 uM incubated for 12 hrs by RT-qPCR analysis; assay type: functional, cell-based
[26] = target: T1, von Hippel-Lindau disease tumor suppressor/Androgen receptor; assay: PROTAC activity at AR/VHL in human VCaP cells assessed as induction of androgen receptor degradation at 0.03 to 3 uM measured for 12 hrs by Western blot analysis; assay type: cell-based; conditions: dose 0.03-3 µM
[27] = target: T1, von Hippel-Lindau disease tumor suppressor/Androgen receptor; assay: PROTAC activity at AR/VHL in human LNCaP cells assessed as induction of androgen receptor degradation at 1 uM measured for 6 hrs in presence of VH032 by Western blot analysis; assay type: cell-based
[28] = target: T1, von Hippel-Lindau disease tumor suppressor/Androgen receptor; assay: In vivo PROTAC activity at AR/VHL in BALB/c mouse xenografted with human LNCaP cells assessed as reduction in AR level in tumor at 1 mmol/L, iv measured at 72 hrs by Western blot analysis; assay type: functional, organism-based
[29] = target: T1, von Hippel-Lindau disease tumor suppressor/Androgen receptor; assay: In vivo PROTAC activity at AR/VHL in BALB/c mouse xenografted with human LNCaP cells assessed as reduction in AR level in tumor at 1 mmol/L, iv measured at 48 hrs by Western blot analysis; assay type: functional, organism-based

Cc1ncsc1-c1ccc(CNC(=O)[C@@H]2C[C@@H](OC(=O)CCOCCOCCOCCC(=O)NCCCC[C@H](NC(=O)N[C@@H](CCC(=O)O)C(=O)O)C(=O)O)CN2C(=O)[C@@H](NC(=O)CCCCCCCCCNC(=O)c2ccc(C(=O)N[C@H]3C(C)(C)[C@H](Oc4ccc(C#N)c(Cl)c4)C3(C)C)cc2)C(C)(C)C)cc1
DC50 [1]: 21.9 nM
Activity ([1]; dose 0.03-10 µM): Dose-dependent-effect
Drug uptake [2]: Active
Activity [3]: Active
DC50 [4]: 50.2 nM
Activity ([4]; dose 0.03-10 µM): Dose-dependent-effect
Activity [5]: Active
Activity [6]: Active
Activity (LNCaP [7]): Active
Activity [8]: Active
Activity [9]: Active
Activity [10]: Active
Activity [11]: Active
DC50 [12]: > 5000 nM
DC50 [13]: > 5000 nM
DC50 [14]: > 5000 nM
remaining at 24 h [15]: > 90%
Activity [16]: Active
Activity [17]: Active
Activity [18]: Active
DC50 [19]: 44.4 nM
Activity ([19]; dose 0.03-10 µM): Dose-dependent-effect
Activity [20]: Active
Activity (LNCaP [21]): Active
Activity [22]: Active
Activity [23]: Active
Activity [24]: Active
Activity (LNCaP [25]): Active
Activity [26]: Active
Activity [27]: Active

Cc1ncsc1-c1ccc(CNC(=O)[C@@H]2C[C@@H](O)CN2C(=O)[C@@H](NC(=O)CCCCCCCCCNC(=O)c2ccc(C(=O)N[C@H]3C(C)(C)[C@H](Oc4ccc(C#N)c(Cl)c4)C3(C)C)cc2)C(C)(C)C)cc1
Activity [28]: Active
Activity [29]: Active
